ChEMBL document CHEMBL1201862, “PubChem BioAssay data set” (2004)
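A five-concentration, 48-hour dose response in 96-well plates underlies each endpoint, interpolated linearly between surrounding concentrations. Here, GI50 denotes the concentration required for 50% inhibition of growth.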 The source made the active and inactive calls. Rule as the data show it: active = GI50 up to about 1.1 µM and inactive = higher.

Experiments:
Assay in all cases: growth of human tumour cells (NCI), 48 h
MOLT-4 = system: MOLT-4
SK-OV-3 = system: SK-OV-3
NCI/ADR-RES = system: NCI/ADR-RES
SK-MEL-2 = system: SK-MEL-2
SW-620 = system: SW-620
A498 = system: A498
TK-10 = system: TK-10
SNB-75 = system: SNB-75
SF-539 = system: SF-539
HCC 2998 = system: HCC 2998
RPMI-8226 = system: RPMI-8226
T47D = system: T47D
MDA-N = system: MDA-N
SN12C = system: SN12C
OVCAR-5 = system: OVCAR-5
Hs-578T = system: Hs-578T
UO-31 = system: UO-31
Malme-3M = system: Malme-3M

SMILES	GI50 (MOLT-4)	GI50 (SK-OV-3)	GI50 (NCI/ADR-RES)	GI50 (SK-MEL-2)	GI50 (SW-620)	GI50 (A498)	GI50 (TK-10)	GI50 (SNB-75)	GI50 (SF-539)	GI50 (HCC 2998)	GI50 (RPMI-8226)	GI50 (T47D)	GI50 (MDA-N)	GI50 (SN12C)	GI50 (OVCAR-5)	GI50 (Hs-578T)	GI50 (UO-31)	GI50 (Malme-3M)
COc1c2c(c(OC)c3c1c(=O)c1ccccc1n3C)OCO2	7.85 µM (inactive)	25.5 µM (inactive)	44.9 µM (inactive)	> 19.9 µM (inactive)	4.13 µM (inactive)	53.3 µM (inactive)	> 100 µM (inactive)	6.68 µM (inactive)	5.31 µM (inactive)	5.2 µM (inactive)	11.4 µM (inactive)	6.7 µM (inactive)	2.08 µM (inactive)	33.5 µM (inactive)	> 72.3 µM (inactive)	4.79 µM (inactive)	39.4 µM (inactive)	
CCCC(=O)OCOC(=O)N(C)/N=N/c1ccc(C(=O)OCC)cc1	39.4 µM (inactive)	41.5 µM (inactive)	28.9 µM (inactive)	15.2 µM (inactive)	19.8 µM (inactive)	29.2 µM (inactive)	27.9 µM (inactive)	26.5 µM (inactive)		15.2 µM (inactive)	49.1 µM (inactive)	25.2 µM (inactive)	28.6 µM (inactive)	27.2 µM (inactive)	38 µM (inactive)	27.7 µM (inactive)	22 µM (inactive)	20.1 µM (inactive)
Cc1ccc(C(=C2Sc3ccccc3S2)C(=C2Sc3ccccc3S2)c2ccc(C)s2)s1	> 100 µM (inactive)	> 100 µM (inactive)	> 100 µM (inactive)	> 100 µM (inactive)	> 100 µM (inactive)	> 100 µM (inactive)	> 100 µM (inactive)	> 100 µM (inactive)		> 100 µM (inactive)	> 100 µM (inactive)	> 100 µM (inactive)	> 100 µM (inactive)	> 100 µM (inactive)	> 100 µM (inactive)	> 100 µM (inactive)	> 100 µM (inactive)	> 100 µM (inactive)
c1ccc([C@@H]2N[C@@]3(CO[Si](c4ccccc4)(c4ccccc4)c4ccccc4)CC[C@H]4CN[C@@H]2[C@H]43)cc1	3.75 µM (inactive)	16.2 µM (inactive)	15.4 µM (inactive)	17.9 µM (inactive)	3.25 µM (inactive)	15.3 µM (inactive)	16.7 µM (inactive)		15.3 µM (inactive)	1.66 µM (inactive)	2.76 µM (inactive)	4.07 µM (inactive)	3.58 µM (inactive)	13.2 µM (inactive)	16.1 µM (inactive)	13.8 µM (inactive)	10.8 µM (inactive)	0.0598 µM (active)
CC1(C)Oc2ccc3c(=O)cc(-c4ccccc4)oc3c2C1C(=O)O (stereo unspecified)	> 100 µM (inactive)	> 100 µM (inactive)	> 100 µM (inactive)	> 100 µM (inactive)		> 100 µM (inactive)	> 100 µM (inactive)		> 100 µM (inactive)	> 100 µM (inactive)		> 100 µM (inactive)	> 100 µM (inactive)	> 100 µM (inactive)	> 100 µM (inactive)	> 100 µM (inactive)		> 100 µM (inactive)
O=C1N/C(=N/N=C/c2cccs2)N/C1=C\c1ccco1	> 100 µM (inactive)	21.9 µM (inactive)	66.4 µM (inactive)	7.29 µM (inactive)	30.4 µM (inactive)	17.1 µM (inactive)	> 100 µM (inactive)	84.7 µM (inactive)	28.9 µM (inactive)		23.7 µM (inactive)	> 100 µM (inactive)	2.93 µM (inactive)	43.8 µM (inactive)	> 100 µM (inactive)	29.3 µM (inactive)	> 100 µM (inactive)	38.6 µM (inactive)
Cc1cn(Cc2cccc(C3=NCCCN3)c2)c(=O)n(Cc2cccc(C3=NCCCN3)c2)c1=O	> 100 µM (inactive)	> 100 µM (inactive)	> 100 µM (inactive)	> 100 µM (inactive)	> 100 µM (inactive)	> 100 µM (inactive)	> 100 µM (inactive)	83.6 µM (inactive)		> 100 µM (inactive)	> 100 µM (inactive)	> 100 µM (inactive)	> 100 µM (inactive)	25.4 µM (inactive)	> 100 µM (inactive)	> 100 µM (inactive)	> 100 µM (inactive)	> 100 µM (inactive)
COc1ccc(C2=NN(C(=O)c3ccc(Cl)cc3)C(O)(c3cc(F)c(Cl)cc3Cl)C2)cc1OC (stereo unspecified)	4.13 µM (inactive)	> 100 µM (inactive)	9.77 µM (inactive)	78.7 µM (inactive)	6.97 µM (inactive)	5.2 µM (inactive)	86.7 µM (inactive)		> 100 µM (inactive)	8.24 µM (inactive)	6.03 µM (inactive)	6.27 µM (inactive)	15.5 µM (inactive)		> 100 µM (inactive)	24 µM (inactive)	3.08 µM (inactive)	
O=C1CCC2(O)C3Cc4ccc(Oc5nnnn5-c5ccccc5)c5c4C2(CCN3CC2CC2)C1O5 (stereo unspecified)	21 µM (inactive)	> 100 µM (inactive)	86.7 µM (inactive)	22.1 µM (inactive)	33.7 µM (inactive)	29.8 µM (inactive)	62.5 µM (inactive)	> 100 µM (inactive)			28.9 µM (inactive)	39.5 µM (inactive)	22 µM (inactive)	> 100 µM (inactive)	> 100 µM (inactive)	28.9 µM (inactive)	24.2 µM (inactive)	17.8 µM (inactive)
COC(=O)[C@]12CC[C@H]3CN(C(=O)OCc4ccccc4)[C@H]([C@H]31)[C@H](c1ccco1)N2S(=O)(=O)c1ccc(C)cc1	21.8 µM (inactive)	52.1 µM (inactive)	23.5 µM (inactive)	20.7 µM (inactive)	30.4 µM (inactive)	27.4 µM (inactive)	33.2 µM (inactive)		33.1 µM (inactive)	19.5 µM (inactive)	11.6 µM (inactive)	27.6 µM (inactive)	18.9 µM (inactive)	18.5 µM (inactive)	38.5 µM (inactive)	73.5 µM (inactive)	20.9 µM (inactive)	21.3 µM (inactive)
CCCN(CCCc1ccccc1)CCc1ccc2[nH]c(=S)[nH]c2c1	11.3 µM (inactive)	53.8 µM (inactive)	20.5 µM (inactive)	19.3 µM (inactive)	27 µM (inactive)	> 100 µM (inactive)	71.1 µM (inactive)	21.1 µM (inactive)		13.3 µM (inactive)	12.4 µM (inactive)	12.1 µM (inactive)	19.2 µM (inactive)	> 100 µM (inactive)	48.5 µM (inactive)	39.8 µM (inactive)	6.75 µM (inactive)	12.9 µM (inactive)
O=S(=O)(O)CCCC1S(=O)(=O)OCCOS1(=O)=O		> 100 µM (inactive)	> 100 µM (inactive)		> 100 µM (inactive)	> 100 µM (inactive)	> 100 µM (inactive)	0.745 µM (active)	> 100 µM (inactive)	> 100 µM (inactive)	> 100 µM (inactive)	> 100 µM (inactive)	> 100 µM (inactive)		> 100 µM (inactive)	> 100 µM (inactive)	> 100 µM (inactive)	> 100 µM (inactive)
